# From PubChem BioAssay AID1259407 (Chemical Carcinogenesis Research Information System (CCRIS), 2018)
# The source made the active and inactive calls. No rule for the calls is given here.
# Test system: CCRIS mutagenicity, Ames/micronucleus/aberration tests
# Experiment: CCRIS mutagenicity studies
# [1] = Test System: AMES SALMONELLA TYPHIMURIUM, Strain/Indicator: TA100, Metabolic Activation: NONE, Method: PREINCUBATION
smiles,measurement,setting,value
CC(O)CN(CC(C)O)N=O (stereo not drawn),mutagenic call,"Test System: AMES SALMONELLA TYPHIMURIUM, Strain/Indicator: TA100, Metabolic Activation: HAMSTER, LIVER, S-9, 3-METHYLCHOLANTHRENE, Method: PREINCUBATION",inactive; negative
same,mutagenic call,"Test System: AMES SALMONELLA TYPHIMURIUM, Strain/Indicator: TA100, Metabolic Activation: HAMSTER, LIVER, S-9, PHENOBARBITAL, Method: PREINCUBATION",active; positive
same,mutagenic call,"Test System: AMES SALMONELLA TYPHIMURIUM, Strain/Indicator: TA100, Metabolic Activation: HAMSTER, LIVER, S-9, Method: PREINCUBATION",inactive; negative
same,mutagenic call,"Test System: AMES SALMONELLA TYPHIMURIUM, Strain/Indicator: TA100, Metabolic Activation: HUMAN, LIVER, S-9, Method: PREINCUBATION",inactive; negative
same,mutagenic call,"Test System: AMES SALMONELLA TYPHIMURIUM, Strain/Indicator: TA100, Metabolic Activation: MONKEY, LIVER, S-9, Method: PREINCUBATION",inactive; negative
same,mutagenic call,"Test System: AMES SALMONELLA TYPHIMURIUM, Strain/Indicator: TA100, Metabolic Activation: MOUSE, LIVER, S-9, 3-METHYLCHOLANTHRENE, Method: PREINCUBATION",inactive; negative
same,mutagenic call,"Test System: AMES SALMONELLA TYPHIMURIUM, Strain/Indicator: TA100, Metabolic Activation: MOUSE, LIVER, S-9, PHENOBARBITAL, Method: PREINCUBATION",active; positive
same,mutagenic call,"Test System: AMES SALMONELLA TYPHIMURIUM, Strain/Indicator: TA100, Metabolic Activation: MOUSE, LIVER, S-9, Method: PREINCUBATION",inactive; negative
same,mutagenic call,[1],inactive; negative
same,mutagenic call,"Test System: AMES SALMONELLA TYPHIMURIUM, Strain/Indicator: TA100, Metabolic Activation: RABBIT, LIVER, S-9, Method: PREINCUBATION",inactive; negative
same,mutagenic call,"Test System: AMES SALMONELLA TYPHIMURIUM, Strain/Indicator: TA100, Metabolic Activation: RAT, LIVER, CYTOSOL, PCB, Method: PREINCUBATION",inactive; negative
same,mutagenic call,"Test System: AMES SALMONELLA TYPHIMURIUM, Strain/Indicator: TA100, Metabolic Activation: RAT, LIVER, MICROSOMES AND CYTOSOL, PCB, Method: PREINCUBATION",active; positive
same,mutagenic call,"Test System: AMES SALMONELLA TYPHIMURIUM, Strain/Indicator: TA100, Metabolic Activation: RAT, LIVER, MICROSOMES AND G6PDH, PCB, Method: PREINCUBATION",active; positive
same,mutagenic call,"Test System: AMES SALMONELLA TYPHIMURIUM, Strain/Indicator: TA100, Metabolic Activation: RAT, LIVER, MICROSOMES, PCB, Method: PREINCUBATION",inactive; negative
same,mutagenic call,"Test System: AMES SALMONELLA TYPHIMURIUM, Strain/Indicator: TA100, Metabolic Activation: RAT, LIVER, S-9 (HEATED), PCB, Method: PREINCUBATION",inactive; negative
same,mutagenic call,"Test System: AMES SALMONELLA TYPHIMURIUM, Strain/Indicator: TA100, Metabolic Activation: RAT, LIVER, S-9 (WITHOUT NADP+), PCB, Method: PREINCUBATION",inactive; negative
same,mutagenic call,"Test System: AMES SALMONELLA TYPHIMURIUM, Strain/Indicator: TA100, Metabolic Activation: RAT, LIVER, S-9, 3-METHYLCHOLANTHRENE, Method: PREINCUBATION",inactive; negative
same,mutagenic call,"Test System: AMES SALMONELLA TYPHIMURIUM, Strain/Indicator: TA100, Metabolic Activation: RAT, LIVER, S-9, AROCLOR 1254, Method: PREINCUBATION",active; positive
same,mutagenic call,"Test System: AMES SALMONELLA TYPHIMURIUM, Strain/Indicator: TA100, Metabolic Activation: RAT, LIVER, S-9, PCB, Method: PREINCUBATION",active; positive
same,mutagenic call,"Test System: AMES SALMONELLA TYPHIMURIUM, Strain/Indicator: TA100, Metabolic Activation: RAT, LIVER, S-9, PHENOBARBITAL, Method: PREINCUBATION",active; positive
same,mutagenic call,"Test System: AMES SALMONELLA TYPHIMURIUM, Strain/Indicator: TA100, Metabolic Activation: RAT, LIVER, S-9, Method: PREINCUBATION",inactive; negative
same,mutagenic call,"Test System: AMES SALMONELLA TYPHIMURIUM, Strain/Indicator: TA100, Method: PREINCUBATION",active; positive
same,mutagenic call,"Test System: AMES SALMONELLA TYPHIMURIUM, Strain/Indicator: TA104, Metabolic Activation: RAT, LIVER, S-9, AROCLOR 1254, Method: PREINCUBATION",inactive; negative
same,mutagenic call,"Test System: AMES SALMONELLA TYPHIMURIUM, Strain/Indicator: TA1535, Metabolic Activation: RAT, LIVER, S-9, AROCLOR 1254, Method: PREINCUBATION",active; positive
same,mutagenic call,"Test System: AMES SALMONELLA TYPHIMURIUM, Strain/Indicator: TA1975, Metabolic Activation: RAT, LIVER, S-9, AROCLOR 1254, Method: PREINCUBATION",active; positive
same,mutagenic call,"Test System: CHINESE HAMSTER V-79, Strain/Indicator: V-79/OUABAIN, Metabolic Activation: HAMSTER, HEPATOCYTES, Method: CELL-MEDIATED",active; positive
O=C(O)CN(CCN(CC(=O)O)Cc1ccccc1O)Cc1ccccc1O,mutagenic call,"Test System: Mouse lymphoma, Strain/Indicator: L5178Y (tk+/tk-), Metabolic Activation: None, Method: Suspension/plate",active; positive
same,mutagenic call,"Test System: Mouse lymphoma, Strain/Indicator: L5178Y (tk+/tk-), Metabolic Activation: Rat, Liver, S-9, Aroclor 1254, Method: Suspension/plate",active; positive
Oc1c(Br)c(Br)c(Br)c(Br)c1Br,mutagenic call,"Test System: AMES SALMONELLA TYPHIMURIUM, Strain/Indicator: TA98, Metabolic Activation: HAMSTER, LIVER, S-9, AROCLOR 1254 (10%), Method: PREINCUBATION",inactive; negative
same,mutagenic call,"Test System: AMES SALMONELLA TYPHIMURIUM, Strain/Indicator: TA98, Metabolic Activation: NONE, Method: PREINCUBATION",inactive; negative
same,mutagenic call,"Test System: AMES SALMONELLA TYPHIMURIUM, Strain/Indicator: TA98, Metabolic Activation: RAT, LIVER, S-9, AROCLOR 1254 (10%), Method: PREINCUBATION",inactive; negative
same,mutagenic call,"Test System: AMES SALMONELLA TYPHIMURIUM, Strain/Indicator: TA100, Metabolic Activation: HAMSTER, LIVER, S-9, AROCLOR 1254 (10%), Method: PREINCUBATION",inactive; negative
same,mutagenic call,[1],inactive; negative
same,mutagenic call,"Test System: AMES SALMONELLA TYPHIMURIUM, Strain/Indicator: TA100, Metabolic Activation: RAT, LIVER, S-9, AROCLOR 1254 (10%), Method: PREINCUBATION",inactive; negative
same,mutagenic call,"Test System: AMES SALMONELLA TYPHIMURIUM, Strain/Indicator: TA1535, Metabolic Activation: HAMSTER, LIVER, S-9, AROCLOR 1254 (10%), Method: PREINCUBATION",inactive; negative
same,mutagenic call,"Test System: AMES SALMONELLA TYPHIMURIUM, Strain/Indicator: TA1535, Metabolic Activation: NONE, Method: PREINCUBATION",inactive; negative
same,mutagenic call,"Test System: AMES SALMONELLA TYPHIMURIUM, Strain/Indicator: TA1535, Metabolic Activation: RAT, LIVER, S-9, AROCLOR 1254 (10%), Method: PREINCUBATION",inactive; negative
same,mutagenic call,"Test System: AMES SALMONELLA TYPHIMURIUM, Strain/Indicator: TA1537, Metabolic Activation: HAMSTER, LIVER, S-9, AROCLOR 1254 (10%), Method: PREINCUBATION",inactive; negative
same,mutagenic call,"Test System: AMES SALMONELLA TYPHIMURIUM, Strain/Indicator: TA1537, Metabolic Activation: NONE, Method: PREINCUBATION",inactive; negative
same,mutagenic call,"Test System: AMES SALMONELLA TYPHIMURIUM, Strain/Indicator: TA1537, Metabolic Activation: RAT, LIVER, S-9, AROCLOR 1254 (10%), Method: PREINCUBATION",inactive; negative
Cc1cc(C)c2ccc3ccccc3c2c1,mutagenic call,"Test System: AMES SALMONELLA TYPHIMURIUM, Strain/Indicator: TA98, Metabolic Activation: NONE, Method: STANDARD PLATE",inactive; negative
same,mutagenic call,"Test System: AMES SALMONELLA TYPHIMURIUM, Strain/Indicator: TA98, Metabolic Activation: RAT, LIVER, S-9, AROCLOR 1254, Method: STANDARD PLATE",active; positive
same,mutagenic call,"Test System: AMES SALMONELLA TYPHIMURIUM, Strain/Indicator: TA100, Metabolic Activation: NONE, Method: STANDARD PLATE",inactive; negative
same,mutagenic call,"Test System: AMES SALMONELLA TYPHIMURIUM, Strain/Indicator: TA100, Metabolic Activation: RAT, LIVER, S-9, AROCLOR 1254, Method: STANDARD PLATE",active; positive
O=C1C2(Cl)C3(Cl)C4(Cl)C(Cl)(Cl)C5(Cl)C3(Cl)C1(Cl)C5(Cl)C24Cl (stereo not drawn),mutagenic call,"End Point: IN VITRO CHROMOSOMAL ABERRATIONS, Test System: CHINESE HAMSTER OVARY CELLS, Metabolic Activation: NONE",inactive; negative
same,mutagenic call,"End Point: IN VITRO CHROMOSOMAL ABERRATIONS, Test System: CHINESE HAMSTER OVARY CELLS, Metabolic Activation: RAT, LIVER, S-9, AROCLOR 1254",inactive; negative
COCCc1ccc(OCC(O)CN(N=O)C(C)C)cc1 (stereo not drawn),mutagenic call,"Test System: UDS HUMAN HEPATOCYTES, Strain/Indicator: THY INCORP, Metabolic Activation: NONE, Method: AUTORADIOGRAPHY",active; positive
same,mutagenic call,"Test System: UDS RAT HEPATOCYTES, Strain/Indicator: THY INCORP, Metabolic Activation: NONE, Method: AUTORADIOGRAPHY",active; positive
